The numbers were not newly measured in patent US10215758B2, “Platinum-labeled probes for mass cytometry” (priority 2015, dated 2019), which cites them from elsewhere.

For this data set the following is noted: human, in vivo; cited from earlier work.

On to `N.N.[Cl][Pt][Cl]` [cisplatin, cis-diamminedichloroplatinum(II)], for which the “binding to serum protein” value is “most cisplatin binds to serum protein within hours”.
